# Reference: ChEMBL document CHEMBL4342418, “1,2,3-Triazole-containing hybrids as potential anticancer agents: Current developments, action mechanisms and structure-activity relationships” (Eur J Med Chem, 2019)
# pIC50: −log10 of the molar value.
# Assays:
# HeLa [1] = experiment: Antiproliferative activity against human HeLa cells by MTT assay; assay type: functional, cell-based
# HeLa [2] = experiment: Potency index, ratio of podophyllotoxin IC50 to test compound IC50 for antiproliferative activity against human HeLa cells; assay type: functional
# DU-145 [3] = experiment: Potency index, ratio of podophyllotoxin IC50 to test compound IC50 for antiproliferative activity against human DU145 cells; assay type: functional
# HepG2 [4] = experiment: Antiproliferative activity against human HepG2 cells by MTT assay; assay type: functional, cell-based
# DU-145 [5] = experiment: Antiproliferative activity against human DU145 cells by MTT assay; assay type: functional, cell-based
# NIH3T3 = experiment: Antiproliferative activity against mouse NIH/3T3 cells by MTT assay; assay type: functional, cell-based
# HepG2 [6] = experiment: Potency index, ratio of podophyllotoxin IC50 to test compound IC50 for antiproliferative activity against human HepG2 cells; assay type: functional
# MCF7 [7] = experiment: Potency index, ratio of podophyllotoxin IC50 to test compound IC50 for antiproliferative activity against human MCF7 cells; assay type: functional
# A549 [8] = experiment: cells; assay type: functional, cell-based; conditions: Homo sapiens
# Description: Antiproliferative activity against human A549 cells by MTT assay
# A549 [9] = experiment: Potency index, ratio of podophyllotoxin IC50 to test compound IC50 for antiproliferative activity against human A549 cells; assay type: functional
# MCF7 [10] = experiment: cells; assay type: functional, cell-based; conditions: Homo sapiens
# Description: Antiproliferative activity against human MCF7 cells by MTT assay
# MCF7 [11] = experiment: Antiproliferative activity against human MCF7 cells assessed as reduction in cell viability after 72 hrs by MTT assay; assay type: functional, cell-based; conditions: MCF7, 72 h
# MDA-MB-231 [12] = experiment: Potency index, ratio of 5-fluorouracil IC50 to test compound IC50 for antiproliferative activity against human MDA-MB-231 cells; assay type: functional
# MDA-MB-231 [13] = experiment: Antiproliferative activity against human MDA-MB-231 cells assessed as reduction in cell viability after 72 hrs by MTT assay; assay type: functional, cell-based; conditions: MDA-MB-231, 72 h, read-out: IC50
# MCF7 [14] = experiment: Potency index, ratio of 5-fluorouracil IC50 to test compound IC50 for antiproliferative activity against human MCF7 cells; assay type: functional
# MDA-MB-468 [15] = experiment: Potency index, ratio of 5-fluorouracil IC50 to test compound IC50 for antiproliferative activity against human MDA-MB-468 cells; assay type: functional
# MDA-MB-468 [16] = experiment: Antiproliferative activity against human MDA-MB-468 cells assessed as reduction in cell viability after 72 hrs by MTT assay; assay type: functional, cell-based; conditions: MDA-MB-468, 72 h
# MGC-803 [17] = experiment: Antitumour activity against human MGC803 cells xenografted in BALB/c nude mice assessed as inhibition of tumour growth at 60 mg/kg, ig administered for 21 days relative to control; assay type: functional; conditions: Mus musculus, MGC-803, po, 504 h; read-out: TGI
# BGC-823 = experiment: Antiproliferative activity against human BGC823 cells assessed as reduction in cell viability after 72 hrs by MTT assay; assay type: functional, cell-based; conditions: BGC-823, 72 h
# Tubulin = experiment: Inhibition of tubulin polymerization (unknown origin); assay type: protein-complex assay, Homo sapiens
# SGC-7901 = experiment: Antiproliferative activity against human SGC7901 cells assessed as reduction in cell viability after 72 hrs by MTT assay; assay type: functional, cell-based; conditions: SGC-7901, 72 h
# MGC-803 [18] = experiment: Antiproliferative activity against human MGC803 cells assessed as reduction in cell viability after 72 hrs by MTT assay; assay type: functional, cell-based; conditions: MGC-803, 72 h
# A549 [19] = experiment: Antiproliferative activity against human A549 cells assessed as reduction in cell viability after 48 hrs by MTT assay; assay type: functional, cell-based; conditions: A549, 48 h
# HL-60 = experiment: Antiproliferative activity against human HL60 cells assessed as reduction in cell viability after 48 hrs by MTT assay; assay type: functional, cell-based; conditions: HL-60, 48 h
# SW480 [20] = experiment: Antiproliferative activity against human SW480 cells assessed as reduction in cell viability after 48 hrs by MTT assay; assay type: functional, cell-based; conditions: SW480, 48 h
# SW480 [21] = experiment: Potency index, ratio of cisplatin IC50 to test compound IC50 for antiproliferative activity against human SW480 cells; assay type: functional
# MCF7 [22] = experiment: Potency index, ratio of etoposide IC50 to test compound IC50 for antiproliferative activity against human MCF7 cells; assay type: functional
# [23] = Potency index, ratio of cisplatin IC50 to test compound IC50 for antiproliferative activity against human […] cells; assay type: functional
# MCF7 [24] = experiment: Potency index, ratio of cisplatin IC50 to test compound IC50 for antiproliferative activity against human MCF7 cells; assay type: functional
# SW480 [25] = experiment: Potency index, ratio of etoposide IC50 to test compound IC50 for antiproliferative activity against human SW480 cells; assay type: functional
# [26] = Antiproliferative activity against human SMCC7721 cells assessed as reduction in cell viability after 48 hrs by MTT assay; assay type: functional, cell-based
# A549 [27] = experiment: Potency index, ratio of cisplatin IC50 to test compound IC50 for antiproliferative activity against human A549 cells; assay type: functional
# [28] = Potency index, ratio of etoposide IC50 to test compound IC50 for antiproliferative activity against human […] cells; assay type: functional
# A549 [29] = experiment: Potency index, ratio of etoposide IC50 to test compound IC50 for antiproliferative activity against human A549 cells; assay type: functional
# HepG2 [30] = experiment: Potency index, ratio of etoposide IC50 to test compound IC50 for antiproliferative activity against human HepG2 cells by SRB assay; assay type: functional; conditions: pooled result: one value given for 7 cell lines, strains, targets or settings
# A549 [31] = experiment: Antiproliferative activity against human A549 cells by SRB assay; assay type: functional, cell-based
# SK-OV-3 = experiment: Antiproliferative activity against human SKOV3 cells by SRB assay; assay type: functional, cell-based
# HeLa [32] = experiment: Antiproliferative activity against human HeLa cells by SRB assay; assay type: functional, cell-based
# DU-145 [33] = experiment: Antiproliferative activity against human DU145 cells by SRB assay; assay type: functional, cell-based
# MCF7 [34] = experiment: Antiproliferative activity against human MCF7 cells by SRB assay; assay type: functional, cell-based
# HepG2 [35] = experiment: Antiproliferative activity against human HepG2 cells by SRB assay; assay type: functional, cell-based
# MCF7-DOX = experiment: Antiproliferative activity against human MCF7/Dox cells by SRB assay; assay type: functional, cell-based
smiles,measurement,setting,value
COc1cc([C@@H]2c3cc4c(cc3[C@H](NC(=O)c3cn(-c5ccc(Cl)cc5)nn3)[C@H]3COC(=O)[C@H]23)OCO4)cc(OC)c1OC,pIC50,HeLa [1],5.92 to 6.15
same,Ratio IC50,HeLa [2],3.8 - 8.5
same,Ratio IC50,DU-145 [3],3.8 - 8.5
same,pIC50,HepG2 [4],5.92 to 6.15
same,pIC50,DU-145 [5],5.92 to 6.15
same,pIC50,NIH3T3,5.92 to 6.15
same,Ratio IC50,HepG2 [6],3.8 - 8.5
same,Ratio IC50,MCF7 [7],3.8 - 8.5
same,pIC50,A549 [8],5.92 to 6.15
same,Ratio IC50,A549 [9],3.8 - 8.5
same,pIC50,MCF7 [10],5.92 to 6.15
COc1cc(Cn2cc(CN3c4ccccc4Sc4ccccc43)nn2)cc(OC)c1OC,pIC50,MCF7 [11],5.77 to 6.10
same,Ratio IC50,MDA-MB-231 [12],6.2 - 15.8
same,pIC50,MDA-MB-231 [13],5.77 to 6.10
same,Ratio IC50,MCF7 [14],6.2 - 15.8
same,Ratio IC50,MDA-MB-468 [15],6.2 - 15.8
same,pIC50,MDA-MB-468 [16],5.77 to 6.10
Cc1cc(=O)oc2cc(OCc3cn(-c4ccc(S(N)(=O)=O)cc4)nn3)ccc12,inhibition in vivo at 60 mg/kg,MGC-803 [17],64.2%
same,IC50,BGC-823,0.4 to 3.5 µg/mL
same,pIC50,Tubulin,5.62
same,IC50,SGC-7901,0.4 to 3.5 µg/mL
same,IC50,MGC-803 [18],0.4 to 3.5 µg/mL
CCCC(=O)OC[C@H]1O[C@@H](OC(COCc2cn([C@H]3c4cc5c(cc4[C@@H](c4cc(OC)c(OC)c(OC)c4)[C@H]4C(=O)OC[C@@H]43)OCO5)nn2)COCc2cn([C@H]3c4cc5c(cc4[C@@H](c4cc(OC)c(OC)c(OC)c4)[C@H]4C(=O)OC[C@@H]43)OCO5)nn2)[C@H](OC(=O)CCC)[C@@H](OC(=O)CCC)[C@@H]1OC(=O)CCC (some centres not stated),pIC50,A549 [19],5.46 to 6.37
same,pIC50,HL-60,5.46 to 6.37
same,pIC50,SW480 [20],5.46 to 6.37
same,Ratio IC50,SW480 [21],2.8 - 21.3
same,Ratio IC50,MCF7 [22],2.8 - 21.3
same,Ratio IC50,[23],2.8 - 21.3
same,Ratio IC50,MCF7 [24],2.8 - 21.3
same,Ratio IC50,SW480 [25],2.8 - 21.3
same,pIC50,[26],5.46 to 6.37
same,Ratio IC50,A549 [27],2.8 - 21.3
same,Ratio IC50,[28],2.8 - 21.3
same,Ratio IC50,A549 [29],2.8 - 21.3
CO/N=C1\C(=O)N(CCOCCn2cc(CN3C(=O)/C(=N\OC)c4ccccc43)nn2)c2ccccc21,Ratio IC50,HepG2 [30],1.55
same,pIC50,A549 [31],5.00 to 6.74
same,pIC50,SK-OV-3,5.00 to 6.74
same,pIC50,HeLa [32],5.00 to 6.74
same,pIC50,DU-145 [33],5.00 to 6.74
same,pIC50,MCF7 [34],5.00 to 6.74
same,pIC50,HepG2 [35],5.00 to 6.74
same,pIC50,MCF7-DOX,5.00 to 6.74
